Among the data in ChEMBL document CHEMBL1130457, “Design and synthesis of a novel class of thrombin inhibitors incorporating heterocyclic dipeptide surrogates” (Bioorg Med Chem Lett, 1997) are IC50 values, retold here.

Each structure is given as a SMILES string. pIC50: −log10 of the molar value.

Targets include Serine protease 1 (Homo sapiens, UniProt P07477); Plasminogen (Homo sapiens, UniProt P00747); Prothrombin (Homo sapiens, UniProt P00734); Coagulation factor X (Homo sapiens, UniProt P00742).
The target of assay [1] is Tissue-type plasminogen activator (Homo sapiens, UniProt P00750). As to the kind of experiment: Inhibitory concentration required to inhibit human Tissue type plasminogen activator was determined.
Chain of Tissue-type plasminogen activator (P00750 whole entry): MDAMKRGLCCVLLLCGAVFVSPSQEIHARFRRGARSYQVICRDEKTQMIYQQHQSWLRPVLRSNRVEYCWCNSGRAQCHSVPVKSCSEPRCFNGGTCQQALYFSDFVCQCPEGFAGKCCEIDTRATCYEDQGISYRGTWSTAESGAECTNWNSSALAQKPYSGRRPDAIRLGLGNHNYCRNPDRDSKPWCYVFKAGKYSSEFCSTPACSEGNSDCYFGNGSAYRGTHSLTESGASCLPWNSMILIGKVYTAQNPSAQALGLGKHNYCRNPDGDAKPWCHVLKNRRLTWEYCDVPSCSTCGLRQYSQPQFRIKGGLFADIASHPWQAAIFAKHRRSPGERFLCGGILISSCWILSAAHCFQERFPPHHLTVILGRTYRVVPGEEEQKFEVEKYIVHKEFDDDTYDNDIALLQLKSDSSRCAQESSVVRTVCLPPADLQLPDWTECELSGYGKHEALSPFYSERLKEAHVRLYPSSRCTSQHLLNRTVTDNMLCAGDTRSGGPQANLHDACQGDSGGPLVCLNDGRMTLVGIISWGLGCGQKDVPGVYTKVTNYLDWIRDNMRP

Chain of Plasminogen (P00747 97-580 limits assumed): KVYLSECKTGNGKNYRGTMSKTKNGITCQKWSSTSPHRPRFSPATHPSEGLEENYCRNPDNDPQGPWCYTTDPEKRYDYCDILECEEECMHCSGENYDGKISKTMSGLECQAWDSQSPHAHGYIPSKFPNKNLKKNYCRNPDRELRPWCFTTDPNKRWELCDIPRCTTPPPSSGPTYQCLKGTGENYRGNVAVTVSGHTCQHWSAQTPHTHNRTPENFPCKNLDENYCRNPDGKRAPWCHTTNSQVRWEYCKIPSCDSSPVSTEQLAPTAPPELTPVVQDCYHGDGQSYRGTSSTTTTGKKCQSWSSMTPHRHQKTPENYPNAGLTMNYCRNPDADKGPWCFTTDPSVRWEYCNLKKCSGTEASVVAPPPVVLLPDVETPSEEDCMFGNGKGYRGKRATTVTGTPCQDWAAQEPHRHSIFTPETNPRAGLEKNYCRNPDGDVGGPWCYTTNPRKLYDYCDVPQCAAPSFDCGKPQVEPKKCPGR
Chain of Plasminogen (P00747 581-810 limits assumed): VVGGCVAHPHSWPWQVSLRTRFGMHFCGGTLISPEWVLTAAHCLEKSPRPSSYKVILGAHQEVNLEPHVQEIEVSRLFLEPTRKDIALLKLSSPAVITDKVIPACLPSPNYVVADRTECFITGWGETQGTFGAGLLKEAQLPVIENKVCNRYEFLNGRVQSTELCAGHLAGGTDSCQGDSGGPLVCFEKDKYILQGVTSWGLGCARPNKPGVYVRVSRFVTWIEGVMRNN
Chain of Serine protease 1 (P07477 whole entry): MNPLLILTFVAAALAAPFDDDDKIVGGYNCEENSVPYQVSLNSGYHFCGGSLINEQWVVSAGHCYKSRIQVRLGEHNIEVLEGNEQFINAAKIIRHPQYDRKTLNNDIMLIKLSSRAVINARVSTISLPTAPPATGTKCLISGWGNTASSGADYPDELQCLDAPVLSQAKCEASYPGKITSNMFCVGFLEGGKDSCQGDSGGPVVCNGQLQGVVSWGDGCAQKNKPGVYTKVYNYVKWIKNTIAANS
Chain of Coagulation factor X (P00742 41-179 limits assumed): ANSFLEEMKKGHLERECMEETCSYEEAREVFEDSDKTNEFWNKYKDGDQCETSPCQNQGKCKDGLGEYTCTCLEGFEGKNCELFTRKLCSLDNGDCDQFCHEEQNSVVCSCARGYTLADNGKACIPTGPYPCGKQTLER
Chain of Coagulation factor X (P00742 235-488 limits assumed): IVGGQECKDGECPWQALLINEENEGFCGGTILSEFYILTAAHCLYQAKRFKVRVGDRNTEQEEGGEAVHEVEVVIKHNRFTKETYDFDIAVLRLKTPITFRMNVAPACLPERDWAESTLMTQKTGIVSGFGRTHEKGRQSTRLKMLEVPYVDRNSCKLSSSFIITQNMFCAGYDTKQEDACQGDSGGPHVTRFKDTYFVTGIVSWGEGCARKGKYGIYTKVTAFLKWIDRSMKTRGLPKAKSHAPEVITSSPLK
Description for Prothrombin: Inhibitory concentration required to inhibit human thrombin enzyme was determined

As to `N=C(N)N1CCC[C@H](NC(=O)Cn2cccc(NS(=O)(=O)Cc3ccccc3)c2=O)C1O` (stereo not given in full), the pIC50 (as a rule, −log10 of the IC50, conventionally taken in molar units) on Serine protease 1 is 7.58; at Plasminogen it was under 5.60; in assay [1], under 5.60; at Prothrombin, 9.30; on Coagulation factor X, 7.68.
On to `Cc1ncc(NS(=O)(=O)Cc2ccccc2)c(=O)n1CC(=O)N[C@H]1CCCN(C(=N)N)C1O` (stereo not given in full), for which the pIC50 at Serine protease 1 was 6.80; at Plasminogen it was under 5.60; in assay [1], under 5.60; on Prothrombin it was 8.63; at Coagulation factor X it was 6.04.
Consider `Cc1ccc(NS(=O)(=O)Cc2ccccc2)c(=O)n1CC(=O)N[C@H]1CCCN(C(=N)N)C1O` (stereo not given in full), for which the pIC50 is 7.96 against Serine protease 1; under 5.60 on Plasminogen; under 5.60 in assay [1]; 9.33 against Prothrombin; 6.35 against Coagulation factor X.
For the compound `Cn1cc(NS(=O)(=O)Cc2ccccc2)c(=O)n(CC(=O)N[C@H]2CCCN(C(=N)N)C2O)c1=O` (stereo not given in full), the pIC50 against Serine protease 1 was 6.40; against Plasminogen, under 5.60; in assay [1], under 5.60; at Prothrombin it was 6.85; at Coagulation factor X, 5.60.
For `N=C(N)N1CCC[C@H](NC(=O)CN2CCC[C@H](NS(=O)(=O)Cc3ccccc3)C2=O)C1O` (stereo not given in full), the pIC50 was 6.10 on Serine protease 1; under 5.60 at Plasminogen; under 5.60 in assay [1]; 8.21 at Prothrombin; 5.60 against Coagulation factor X.
